Structures are written as SMILES.

A short description of the series: Partition of cannabinoids between degummed cannabis oil miscella and water/ethanol/base extraction solvent in a fiber conduit contactor. The series is classed as physicochemical. Set-up: scale not given here. The source says:
Degummed miscella from Example 1A were used to investigate the extraction of acid cannabinoids into a water/ethanol solvent using a fiber conduit contactor. Bases tested included sodium bicarbonate (NaHCO3), sodium carbonate (Na2CO3), potassium bicarbonate (KHCO3), and potassium carbonate (K2CO3). The hardness difference between a sodium and potassium radii (smaller radii are harder, larger radii are softer) creates a variation in the property of the resulting soaps. Sodium salts give a so-called “harder” soap that is more likely to be rejected from the crude miscella. Switching from bicarbonate to carbonate has two effects: (1) higher ion count in solution, thereby increasing ionic strength/polarity; and (2) increasing the pH by approximately 1 pH unit for the same wt % solution. This increased polarity can be used to enforce selectivity of the desired compounds.
As shown in the results below, there are multiple options for extracting specific combinations of cannabinoids. The bicarbonate bases gave a preference to acid cannabinoids, whereas the stronger carbonate bases were able to increase the total mass transfer. These parameters can be used to control the outflow product streams. The partition coefficients for various combinations are summarized in Table 3 and can be used to determine the optimal extraction solvent for a target compound or goal.
In Table 3 above, the Examples are ordered by decreasing polarity from top to bottom. A lower number specifies a preference for extraction and a high number specifies a preference to remain in the neutral oil. Blank squares are where coefficients could not be calculated.

Setting [1] is: Base K2CO3, H2O/EtOH/Base (wt %) 68.3/29.1/2.5.
[2] abbreviates: Base K2CO3, H2O/EtOH/Base (wt %) 77.9/19.5/2.6.
Where [3] appears, read: Base K2CO3, H2O/EtOH/Base (wt %) 82.8/14.7/2.5.
[4] abbreviates: Base K2CO3, H2O/EtOH/Base (wt %) 87.5/10/2.5.
Setting [5] is: Base Na2CO3, H2O/EtOH/Base (wt %) 68.4/29.1/2.5.
The mark [6] stands for this setting: Base Na2CO3, H2O/EtOH/Base (wt %) 73.2/24.2/2.6.
The mark [7] stands for this setting: Base Na2CO3, H2O/EtOH/Base (wt %) 77.6/19.9/2.5.
[8] abbreviates: Base Na2CO3, H2O/EtOH/Base (wt %) 82.9/14.5/2.6.
Where [9] appears, read: Base Na2CO3, H2O/EtOH/Base (wt %) 87.8/9.7/2.6.
Where [10] appears, read: Base NaHCO3, H2O/EtOH/Base (wt %) 67.8/29.7/2.4, lower = preference for extraction, higher = remains in neutral oil.
Where [11] appears, read: Base NaHCO3, H2O/EtOH/Base (wt %) 72.9/24.6/2.5.
[12] abbreviates: Base NaHCO3, H2O/EtOH/Base (wt %) 77.9/19.6/2.5.
[13] abbreviates: Base NaHCO3, H2O/EtOH/Base (wt %) 81.2/16.3/2.5.
The mark [14] stands for this setting: Base NaHCO3, H2O/EtOH/Base (wt %) 879./9.7/2.4.
The mark [15] stands for this setting: Base KHCO3, H2O/EtOH/Base (wt %) 68.1/29.4/2.6.
Setting [16] is: Base KHCO3, H2O/EtOH/Base (wt %) 73.1/24.3/2.6.
The mark [17] stands for this setting: Base K2CO3, H2O/EtOH/Base (wt %) 73.0/24.5/2.5.
The mark [18] stands for this setting: Base KHCO3, H2O/EtOH/Base (wt %) 78.0/19.5/2.5.
Setting [19] is: Base KHCO3, H2O/EtOH/Base (wt %) 82.7/14.8/2.5.
Setting [20] is: Base NaHCO3, H2O/EtOH/Base (wt %) 68.4/29.5/2.0.
Setting [21] is: Base NaHCO3, H2O/EtOH/Base (wt %) 69.0/29.6/1.5.
Where [22] appears, read: Base NaHCO3, H2O/EtOH/Base (wt %) 69.9/29.9/0.25.

For the compound `CCCCCc1cc(O)c2c(c1)OC(C)(CCC=C(C)C)C=C2` (stereo not shown) [CBC, cannabichromene], the Partition coefficient is listed as 0.6 under setting [1]; 0.23 under setting [2]; 0.23 under setting [3]; 0.16 under setting [4]; −0.2 under setting [5]; −0.16 under setting [6]. The Partition coefficient is on record as −0.21 under setting [7]; −0.14 under setting [8]; 0.22 under setting [9]; 0.54 under setting [10]; 0.83 under setting [11]; 1.42 under setting [12]. Also, the Partition coefficient under setting [13] is recorded as 1.33 and the Partition coefficient under setting [14] amounted to 1.21.
With `CCCCCc1cc2c(c(O)c1C(=O)O)C=CC(C)(CCC=C(C)C)O2` (stereo not shown) [CBCA, cannabichromenic acid], the Partition coefficient runs as follows: under setting [1], 0.22; under setting [2], −0.29; under setting [3], −0.25; under setting [4], −0.2; under setting [15], 2.09; under setting [16], 2.59. In addition, the Partition coefficient reads like this: under setting [5], 0.93; under setting [6], 1.09; under setting [7], 1.08; under setting [8], 1.15; under setting [9], 1.48; under setting [10], 0.57. For the same compound, the Partition coefficient was 1.14 under setting [11], 1.24 under setting [13] and 1.17 under setting [14].
As to `C=C(C)[C@@H]1CCC(C)=C[C@H]1c1c(O)cc(CCCCC)cc1O` [CBD, cannabidiol, reference compound], the Partition coefficient reads like this: under setting [1], 0.55; under setting [17], 0.87; under setting [2], 0.19; under setting [3], 0.19; under setting [4], 0.1; under setting [15], 0.6. Moreover, the Partition coefficient runs as follows: under setting [16], 1.06; under setting [18], 1.59; under setting [19], 1.43; under setting [5], −0.87; under setting [6], −0.86; under setting [7], −0.94. Further, the Partition coefficient reads like this: under setting [8], −0.9; under setting [9], −0.55; under setting [10], 0.48; under setting [20], 1.4; under setting [21], 1.86; under setting [11], 0.78. The Partition coefficient by setting is: under setting [12], 1.29; under setting [13], 1.25; under setting [14], 1.14.
Consider `C=C(C)[C@@H]1CCC(C)=C[C@H]1c1c(O)cc(CCCCC)c(C(=O)O)c1O` [CBDA, cannabidiolic acid], for which the Partition coefficient under setting [1] was 0.04; the Partition coefficient under setting [17] was 0.45; the Partition coefficient under setting [2] is listed as −0.16; the Partition coefficient under setting [3] was −0.08; the Partition coefficient under setting [4] was found to be 0; the Partition coefficient under setting [15] is reported as −1.02. Besides, the Partition coefficient is on record as −0.59 under setting [16]; 0.04 under setting [18]; 0.21 under setting [19]; 0.19 (Base KHCO3, H2O/EtOH/Base (wt %) 86.3/11.3/2.5); −2.37 under setting [5]; −2.22 under setting [6]. The Partition coefficient by setting is: under setting [7], −2.22; under setting [8], −2.11; under setting [9], −1.75; under setting [10], 0.43; under setting [20], −0.19; under setting [21], 0.1. In addition, the Partition coefficient is 0.22 (Base NaHCO3, H2O/EtOH/Base (wt %) 69.2/29.8/1.0); 0.38 under setting [22]; 0.68 under setting [11]; 1.09 under setting [12]; 1.05 under setting [13]; 0.96 under setting [14].
For `CCCCCc1cc(O)c(C/C=C(\C)CCC=C(C)C)c(O)c1` [CBG, cannabigerol], the Partition coefficient by setting is: under setting [2], 0.01; under setting [3], 0.05; under setting [4], −0.07; under setting [5], 1.58; under setting [6], 1.6; under setting [7], 1.53. Besides, the Partition coefficient was found to be 1.59 under setting [8]; 1.91 under setting [9]; 0.46 under setting [10]; 2.62 under setting [22]; 0.76 under setting [11].
Consider `CCCCCc1cc(O)c(C/C=C(\C)CCC=C(C)C)c(O)c1C(=O)O` [CBGA, cannabigerolic acid], for which the Partition coefficient is recorded as 0.15 under setting [1]; −0.19 under setting [2]; −0.15 under setting [3]; −0.1 under setting [4]; 0.33 under setting [15]; 0.72 under setting [16]. The Partition coefficient under setting [18] amounted to 1.4; the Partition coefficient under setting [19] worked out at 1.61; the Partition coefficient under setting [5] is listed as −0.57; the Partition coefficient under setting [6] is listed as −0.47; the Partition coefficient under setting [7] is reported as −0.5; the Partition coefficient under setting [8] is listed as −0.44. Besides, the Partition coefficient by setting is: under setting [9], −0.14; under setting [10], 0.46; under setting [11], 0.76; under setting [12], 1.2; under setting [13], 1.19; under setting [14], 1.1.
`CCCCCc1cc(O)c2c(c1)OC(C)(C)[C@@H]1CCC(C)=C[C@@H]21` [THC, tetrahydrocannabinol, reference compound]: the Partition coefficient is, setting by setting: under setting [1], 0.59; under setting [2], 0.1; under setting [3], 0.09; under setting [4], 0.13; under setting [5], 0.22; under setting [6], 0.2. The Partition coefficient by setting is: under setting [7], 0.1; under setting [8], 0.13; under setting [9], 0.47; under setting [10], 0.77; under setting [11], 1.03; under setting [12], 1.43. The Partition coefficient turned out to be 1.28 under setting [13] and 1.17 under setting [14].
In the case of `CCCCCc1cc2c(c(O)c1C(=O)O)[C@@H]1C=C(C)CC[C@H]1C(C)(C)O2` [THCA, tetrahydrocannabinolic acid], the Partition coefficient is, setting by setting: under setting [1], 0.28; under setting [2], −0.09; under setting [3], −0.05; under setting [4], 0.15; under setting [15], 1.26; under setting [16], 1.76. The Partition coefficient was −0.18 under setting [5]; −0.02 under setting [6]; −0.02 under setting [7]; 0.06 under setting [8]; 0.41 under setting [9]; 0.91 under setting [10]. For the same compound, the Partition coefficient is recorded as 1 under setting [11], 1.33 under setting [12], 1.16 under setting [13] and 1.12 under setting [14].

These data come from patent US11766628B2, “Purification and extraction of cannabinoids” (CHEMTOR, LP, priority 2020, dated 2023).
